Assay results: patent publication US8754060B2, “Methods and compositions for inhibition of axonal degeneration by modulation of the DLK/JNK pathway” (Washington University, priority 2008, dated 2014)

Legend:
[1] = test system: DRG axons; experiment: DRG axotomy model: axon degeneration 24 hours post-axotomy (phase contrast, degeneration index); type: cell-based, mouse
Description: In these experiments, the inventors cultured embryonic mouse dorsal root ganglion cells (DRGs) for 14-16 days to allow their axons to radiate from the central core of cell bodies before severing the axons with a micro-scalpel. […] Axotomized DLK mutant axons have a 65%+/−3.2% (se) decrease in degeneration index (DI) relative to controls (p<0.0001, n=8 individual axotomized DRG cultures per condition, t-test). Vincristine treatment induces 59%+/−6.3% (se) less DI in DLK mutants relative to controls (p<0.002, n=7 DRG cultures per condition, t-test). […] The initially smooth and continuous axonal processes become rough and irregular axon fragments. The extent of axon breakdown was quantified by measuring the fraction of axonal area occupied by fragmented axons (degeneration index, DI). […] Because non-neuronal cells are eliminated in this DRG culture system, we concluded that DLK must be required within neurons themselves for the normal axon degenerative response.
In these experiments, to determine whether the axon degeneration pathway requires either JNK or p38, we used pharmacological inhibitors of each MAP kinase in the DRG axotomy model. Wild-type DRG cultures were treated with the JNK inhibitor SP600215 and the p38 inhibitor SB203580 starting from 24 hours before axotomy and for the remainder of the experiment.
Unless noted, vehicle and inhibitors were added 24 hours pre-axotomy and left on for the duration of the experiment. FIG. 3A: Vehicle (DMSO). FIG. 3B: SB203580 (P38 inhibitor). FIG. 3C: SP600215 (JNK inhibitor). FIG. 3D: SP600215 added 24 hr pre-axotomy, and removed just before axotomy. FIG. 3E: SF600215 added concurrently with axotomy. FIG. 3F: SP600215 added 3 hours post-axotomy. FIG. 3G: SP600215 added concurrent with axotomy and removed 3 hours post-axotomy.

[2] = test system: cultured DRG neurons; conditions: morphologically similar to that induced by axotomy (Wang et al. 2000; FIG. 2); cited from earlier work

Structure (SMILES)	degeneration of DRG axons following axotomy ([1]; added 3 hours post-axotomy and continued for the rest of the experiment (FIG. 3F))	degeneration of DRG axons following axotomy ([1]; added 24 hr pre-axotomy, and removed just before axotomy (FIG. 3D))	degeneration of DRG axons following axotomy ([1]; added concurrent with axotomy and removed 3 hours post-axotomy (FIG. 3G), vs vehicle (DMSO))	degeneration of DRG axons following axotomy ([1]; added concurrently with axotomy (FIG. 3E))	degeneration of DRG axons following axotomy ([1]; inhibitor added 24 hours pre-axotomy and left on for the duration of the experiment, 24 hours post-axotomy, vs vehicle (DMSO) (FIG. 3B, 3C))	axon degeneration triggered by the drug [2]
O=C1c2ccccc2-c2n[nH]c3cccc1c23 [SP600215, Anthra[1,9-cd]pyrazol-6(2H)-one; 1,9-pyrazoloanthrone]	did not decrease axon degeneration	not protective	significantly less degenerated than A	protective	significantly less degenerated than A	
CC[C@]1(O)C[C@H]2CN(CCc3c([nH]c4ccccc34)[C@@](C(=O)OC)(c3cc4c(cc3OC)N(C=O)[C@H]3[C@@](O)(C(=O)OC)[C@H](OC(C)=O)[C@]5(CC)C=CCN6CC[C@]43[C@@H]65)C2)C1 [vincristine]						triggers an axon degeneration
